Data: patent publication US4361573A, “α,α-Diaryl-β-(tert-amino)-propanols and diuretic pharmaceutical compositions containing them” (Temmler AG, priority 1974, dated 1982)
Read-outs that look alike come from different tables or passages of the source.

Key:
[1] = comparison of toxicity in mice: oral LD50 by the Lichtfiel & Wilcoxon method; assay type: in vivo; details: mouse, in vivo, observation period 7 days, 95% confidence limit in brackets, read-out: LD50
Text: In Table 3 the mean lethal doses for mice, administered orally (LD50 determination by the […] & WILCOXON method - J.Pharmacol. Exp. Ther. 96,98 (1949)) are compared.

[2] = saluretic efficiency test in rats: elimination of water, sodium, chloride and potassium in 6 h urine after oral dosing; assay type: in vivo; details: for change in vivo at 40 µmol/kg / change in vivo at 80 µmol/kg: Rattus norvegicus; for change in vivo at 40 µmol/kg / change in vivo at 80 µmol/kg / Quotient Na/K: rats, oral
Description: In order to test the saluretic efficiency of the compounds of the invention rats having a weight of 150 to 200 g were used. The animals were kept without food, but not without drinking water, for 15 hours before the beginning of the test. The test substances were administered to groups of four rats, of substantially equal weight, with a rigid stomach probe in a 1% methyl cellulose slime. The dose required per 100 g animal (unit dosage in μmol/kg body weight) was contained in one ml. Following the administration of the substance the rats were given 5 ml 0.9% sodium chloride solution per 100 g body weight p.o. and placed in a diuresis funnel after manually emptying the bladder. Urine was collected for 6 hours in an airconditioned chamber at 24°±1° C. and a relative air humidity of 50±5%. The diuretic effect of a particular dose was tested on at least two, but more frequently however on four to eight groups of rats. Two sodium chloride controls were also used for each test day.
At the end of the collecting periods the volumes of urine discharged per group were noted and the pH value and also the content of sodium, potassium (flame-photometrically) and chloride (measured argentometrically with the determination of the end point potentiometrically) were determined.
From the analysis results the quantities of Na^+, K^+ and Cl^- eliminated were calculated in […] body weight, and the values thus obtained compared with those of the control animals.
Means values and twice the standard deviation were calculated from the data for the sodium chloride controls, in order to determine the normal range. Then, for the values found with the test substances, the percentage variations from the average in respect of these parameters were calculated and tabulated. In this connection, with the results given in Table 1, the upper limit of the normal range, which is defined as the mean value plus twice the standard deviation, was selected as the reference quantity for the variations. In this way relevant hyper-eliminations could clearly be recognised.
In Table 2, the mean percentage variations in potassium elimination after administration of the compounds in accordance with the invention are compared with the mean value of the potassium elimination in the case of the sodium chloride controls. At the same time the […] ratio is given which provides conclusive evidence of the effective saluretic property. The larger this quotient is, then the more sodium than potassium is eliminated in proportion.

[3] = 6 h, 40 μmol/kg body wt., relative to mean K+ elimination of the controls, read-out: Mean percentage variation in the elimination of potassium
[4] = 6 h, 80 μmol/kg body wt., relative to mean K+ elimination of the controls, read-out: Mean percentage variation in the elimination of potassium
[5] = 40 μmol/kg body wt., deviation from control mean plus twice the standard deviation, 6 h urine, read-out: Mean percentage variation in the elimination of Chloride
[6] = 40 μmol/kg body wt., deviation from control mean plus twice the standard deviation, 6 h urine, read-out: Mean percentage variation in the elimination of H2O
[7] = 40 μmol/kg body wt., deviation from control mean plus twice the standard deviation, 6 h urine, read-out: Mean percentage variation in the elimination of Sodium
[8] = 80 μmol/kg body wt., deviation from control mean plus twice the standard deviation, 6 h urine, read-out: Mean percentage variation in the elimination of Chloride
[9] = 80 μmol/kg body wt., deviation from control mean plus twice the standard deviation, 6 h urine, read-out: Mean percentage variation in the elimination of H2O
[10] = 80 μmol/kg body wt., deviation from control mean plus twice the standard deviation, 6 h urine, read-out: Mean percentage variation in the elimination of Sodium
[11] = dose of 10 mol/kg body weight, average

Structure (SMILES)	LD50 [1] [mg/kg]	change in vivo at 40 µmol/kg [2, 3] [%]	change in vivo at 80 µmol/kg [2, 4] [%]	change in vivo at 40 µmol/kg [2, 5] [%]	change in vivo at 40 µmol/kg [2, 6] [%]	change in vivo at 40 µmol/kg [2, 7] [%]	change in vivo at 80 µmol/kg [2, 8] [%]	change in vivo at 80 µmol/kg [2, 9] [%]	change in vivo at 80 µmol/kg [2, 10] [%]	Quotient Na/K ([2]; 40 μmol/kg body wt.)	Quotient Na/K ([2]; 80 μmol/kg body wt.)	maximum hyper-elimination, chloride ([2]; dose of 10 μmol/kg body weight, average) [%]	maximum hyper-elimination, sodium [2, 11] [%]	maximum hyper-elimination, water [2, 11] [%]	Na/K ratio of the quantities eliminated ([2]; maximum effective dose, 10 μmol/kg body wt.)	hyper-elimination of potassium ([2]; maximum effective dose, 10 mol/kg body wt.) [%]
CCCC(C)(C)c1cc(C)c(OC)c(C(O)(c2ccccc2)C(C)N2CCCC2)c1 (centres unmarked) [T 2111, 1-(2'-methoxy-3'-methyl-5'-tertiary-hexylphenyl)-1-phenyl-2-pyrrolidino-propan-1-ol]	4450	19.4	-7.1	9.5	36.8	33.5	23.4	33.8	37.1	6.64	8.77	–	–	–	–	–
C=CCc1cc2c(cc1C(O)(c1ccc(OC)cc1)C(C)N1CCCCC1)OCO2 (centres unmarked) [T 2378, 1-(3',4'-methylenedioxy-6'-allylphenyl)-1-(4"-methoxyphenyl)-2-piperidino-propane-1-ol]	1600	11.2	32.7	-5.6	6.7	6.7	-20.4	39.6	45	5.70	6.49	–	–	–	–	–
COc1ccc(C(O)(c2cc(C(C)(C)C)cc(C)c2OC)C(C)N2CCCCC2)cc1OC (centres unmarked) [T 2464, 1-(2'-methoxy-3'-methyl-5'-tertiary-butylphenyl)-1-(3",4"-dimethoxyphenyl)-2-piperidinopropan-1-ol]	> 4550	9.2	-1	30.4	49.8	64.4	38.3	65.9	79	8.94	10.74	–	–	–	–	–
CCOc1ccc(C(O)(c2cc(C(C)C)c(OC)c(C(C)C)c2)C(C)N2CCCCC2)cc1 (centres unmarked) [T 2258, 1-(4'-methoxy-3',5'-diisopropylphenyl)-1-(4"-ethoxyphenyl)-2-piperidino-propan-1-ol]	> 4500	19.4	1	12.8	28.1	22.9	17.3	32.3	24.6	6.11	7.32	–	–	–	–	–
COc1c(C)cc(C(C)(C)C)cc1C(O)(c1ccccc1)C(C)N1CCCCC1 (centres unmarked) [T 1857, 1-(2'-methoxy-3'-methyl-5'-tert-butylphenyl)-1-phenyl-2-piperidino-propan-1-ol]	3820	30.6	29.6	32.9	52	54.8	36	56.5	54.6	7.04	7.09	–	–	–	–	–
NS(=O)(=O)c1cc2c(cc1Cl)NCNS2(=O)=O [6-chloro-3.4.-dihydro-7-sulphamoyl-2H-1.2.4.-benzothiadiazine-1.1.-dioxide, reference compound]	–	–	–	–	–	–	–	–	–	–	–	17.3	29.6	19.9	4.86	58.3
CCOc1ccc(C(O)(c2cc(C(C)C)c(OCC)c(C(C)C)c2)C(C)N2CCCCC2)cc1 (centres unmarked) [T 2453, 1-(4'-ethoxy-3',5'-diisopropylphenyl)-1-(4"-ethoxyphenyl)-2-piperidino-propan-1-ol]	700	-2	–	6.9	13.4	7.6	31.2	51.7	62.2	6.52	9.63	–	–	–	–	–
COc1ccc(C)cc1C(O)(c1cc(C(C)C)c(OCc2ccccc2)c(C(C)C)c1)C(C)N1CCCCC1 (centres unmarked) [T 2481, 1-(2'-methoxy-5'-methylphenyl)-1-(4"-benzyloxy-3",5"-diisopropylphenyl)-2-piperidino-propan-1-ol]	3780	-4.1	16.3	-7.5	3	-2.4	20	34.1	43.8	6.04	7.34	–	–	–	–	–
Nc1nc(N)c2nc(-c3ccccc3)c(N)nc2n1 [2.4.7-triamino-6-phenyl-pteridine, reference compound]	–	-43.9	-55.1	-11.7	-1	-4	-11.7	-2	-0.2	10.16	13.20	–	–	–	–	–
Cc1c(C(O)(c2ccccc2)C(C)N2CCCCC2)cc2c(c1C)OCCC2 (centres unmarked) [T 2129, 1-(7',8'-dimethylchromanyl-(6'))-1-phenyl-2-piperidino-propan-1-ol]	> 3200	12.3	35.7	12.4	23.9	32.6	22	21.3	19.4	7.02	5.23	–	–	–	–	–
COc1c(C)c(C)c(C(O)(c2ccccc2)C(C)N2CCCCC2)c(C)c1C (centres unmarked) [T 2152, 1-(4'-methoxy-2',3',5',6'-tetramethylphenyl)-1-phenyl-2-piperidino-propane-1-ol]	–	9.2	9.2	11.6	22.9	22.7	5.6	22.6	20.4	6.67	6.55	–	–	–	–	–
COc1cc(C)c(C(O)(c2ccccc2)C(C)N2CCCC2)cc1C(C)(C)C (centres unmarked) [T 1856, 1-(4'-methoxy-2'-methyl-5'-tert-butylphenyl)-1-phenyl-2-pyrrolidino-propan-1-ol]	2200	25.5	22.4	19.4	41	30.6	32.5	59.7	47.6	6.18	7.16	–	–	–	–	–
COc1c(C)cc(C(O)(c2cc(Cl)cc(C)c2OC)C(C)N(C)C(C)(C)C)cc1C (centres unmarked) [T 2493, 1-(3'-chloro-6'-methoxy-5'-methylphenyl)-1-(4"-methoxy-3",5"-dimethylphenyl)-2-(N-methyl-tertiary-butylamino)-propan-1-ol]	3610	35.7	34.7	41	59.2	62.7	41.5	64.4	76.8	7.74	7.88	–	–	–	–	–
